# Assay results from US9174996B2, “Protein kinase inhibitors” (Astar Biotech LLC, priority 2012, dated 2015).
# Tests used:
# [1] = target: Ba/F3 cells expressing BCR-ABL T315I (Homo sapiens, UniProt P00519, T315I, cells depend on it); assay: MTT cell viability assay, Experiment 3; type: cell-based, murine; conditions: Mean ± S.E.M, two independent experiments, read-out: IC50 cell viability, Ba/F3 cells T315I BCR-ABL
# Source text: (§1) This study evaluated the effect of the pure optical isomers on human leukemia cell viability in vitro. […] Two BCR-ABL-positive human leukemia cell lines, K562 and KU812, were used in this study. Besides, Ba/F3 cell transfectants expressing native or T315I BCR-ABL, whose viability is dependent on ectopically expressed BCR-ABL, were also used in this work. Ba/F3 cells expressing BCR-ABL^T315I were used for testing the efficiency of tested compounds on point mutation BCR-ABL^T315I, which cause drug resistance to Imatinib (Gleevec). U937 and JURKAT, two BCR-ABL-negative human leukemia cell lines, were employed to test the selectivity of tested compounds.
# (§2) Cells were seeded in 24-well plates, and treated with drugs at corresponding concentrations. Cell viability was measured using a MTT (3-(4,5-dimethylthiazol-2-yl)-2,5-diphenyltetrazolium bromide)-based colorimetric assay with a 96-well plate reader. IC50 values were calculated using the mean of two independent experiments.
# [2] = target: Ba/F3 cells expressing native BCR-ABL (Homo sapiens, UniProt P00519); assay: MTT cell viability assay, Experiment 3; type: cell-based, murine; conditions: Mean ± S.E.M, two independent experiments, read-out: IC50 cell viability, Ba/F3 cells Native BCR-ABL
# Source text: as §1, §2
# JURKAT = assay: MTT cell viability assay, Experiment 3; type: cell-based; conditions: Homo sapiens, MTT, Mean ± S.E.M, two independent experiments, read-out: IC50 cell viability, Non-CML leukemia cells JURKAT
# Source text: (§3) This study evaluated the effect of the pure optical isomers on human leukemia cell viability in vitro. Ponatinib was used as the positive control. Two BCR-ABL-positive human leukemia cell lines, K562 and KU812, were used in this study. Besides, Ba/F3 cell transfectants expressing native or T315I BCR-ABL, whose viability is dependent on ectopically expressed BCR-ABL, were also used in this work. Ba/F3 cells expressing BCR-ABL^T315I were used for testing the efficiency of tested compounds on point mutation BCR-ABL^T315I, which cause drug resistance to Imatinib (Gleevec). U937 and JURKAT, two BCR-ABL-negative human leukemia cell lines, were employed to test the selectivity of tested compounds.
# as §2
# K562 = assay: MTT cell viability assay, Experiment 3; type: cell-based; conditions: Homo sapiens, K562; MTT, Mean ± S.E.M, two independent experiments; read-out: IC50 cell viability, CML leukemia cells K562
# Source text: as §3, §2
# KU812 = assay: MTT cell viability assay, Experiment 3; type: cell-based; conditions: Homo sapiens, KU812; MTT, Mean ± S.E.M, two independent experiments; read-out: IC50 cell viability, CML leukemia cells KU812
# Source text: as §3, §2
# U937 = assay: MTT cell viability assay, Experiment 3; type: cell-based; conditions: Homo sapiens, U-937; MTT, Mean ± S.E.M, two independent experiments; read-out: IC50 cell viability, Non-CML leukemia cells U937
# Source text: as §3, §2
# K562 cells = assay: Cell death assay, Experiment 1 (live cells counted by trypan blue); type: cell-based; conditions: Homo sapiens, 100 nM, 48 hours, read-out: % live cells (vs control)
Compound,melting point [°C],viability at 0.1 µM (K562 cells) [%],other results
"CN1CCN([C@@H]2CC(F)(F)c3cc(NC(=O)c4ccc(Cl)c(C#Cc5cnc6cccnn56)c4)ccc32)CC1 (single isomer, unassigned) [38-(R)]",,,GI50 [1]: > 100 nM; GI50 [2]: 78.2 ± 2.3 nM; IC50 (JURKAT): > 1000 nM; IC50 (K562): 24.9 ± 9.9 nM; IC50 (KU812): 11.9 ± 0.3 nM; IC50 (U937): > 1000 nM
"CN1CCN([C@@H]2CC(F)(F)c3cc(NC(=O)c4ccc(F)c(C#Cc5cnc6cccnn56)c4)ccc32)CC1 (single isomer, unassigned) [39-(R)]",,,GI50 [1]: > 100 nM; GI50 [2]: 47.6 ± 4.5 nM; IC50 (JURKAT): > 1000 nM; IC50 (K562): 6.4 ± 1.3 nM; IC50 (KU812): 3.6 ± 0.8 nM; IC50 (U937): > 1000 nM
"CN1CCN([C@H]2CC(F)(F)c3cc(NC(=O)c4ccc(F)c(C#Cc5cnc6cccnn56)c4)ccc32)CC1 (single isomer, unassigned) [39-(S)]",,,GI50 [1]: 6.5 ± 1.2 nM; GI50 [2]: 2.3 ± 0.5 nM; IC50 (JURKAT): > 1000 nM; IC50 (K562): 0.3 ± 0.2 nM; IC50 (KU812): 0.2 ± 0.1 nM; IC50 (U937): > 1000 nM
"Cc1ccc(C(=O)Nc2ccc(CN3CCN(C)CC3)c(C(F)(F)F)c2)cc1C#Cc1cnc2cccnn12 [AP-24534, reference compound]",,10.1,
"Cc1ccc(-c2nc3ccc(CN4CCN(C)CC4)cc3[nH]2)cc1C#Cc1cnc(NC2CC2)nc1 [Compound 5, N-Cyclopropyl-5-(2-(2-methyl-5-(6-((4-methylpiperazin-1-yl)methyl)-1H-benzo[d]imidazol-2-yl)phenyl)ethynyl)pyrimidin-2-amine]",136 to 137,10.8,
"CN1CCN(Cc2ccc3nc(-c4ccc(Cl)c(C#Cc5cnc(NC6CC6)nc5)c4)[nH]c3c2)CC1 [Compound 10, 5-(2-(2-Chloro-5-(6-((4-methylpiperazin-1-yl)methyl)-1H-benzo[d]imidazol-2-yl)phenyl)ethynyl)-N-cyclopropylpyrimidin-2-amine]",160 to 162,11,
"Cc1ccc(C(=O)Nc2ccc(CN3CCN(C)CC3)c(C(F)(F)F)c2)cc1C#Cc1ccc(NC(C)C)nn1 [Compound 14, 3-(2-(6-(Isopropylamino)pyridazin-3-yl)ethynyl)-4-methyl-N-(4-((4-methylpiperazin-1-yl)methyl)-3-(trifluoromethyl)phenyl)benzamide]",67 to 68,8.37,
"CN1CCN(Cc2ccc(NC(=O)c3ccc(Cl)c(C#Cc4ccc(NC5CC5)nn4)c3)cc2C(F)(F)F)CC1 [Compound 15, 4-Chloro-3-(2-(6-(cyclopropylamino)pyridazin-3-yl)ethynyl)-N-(4-((4-methylpiperazin-1-yl)methyl)-3-(trifluoromethyl)phenyl)benzamide]",133 to 134,17,
CC(C)Nc1ccc(C#Cc2cc(C(=O)Nc3ccc(CN4CCN(C)CC4)c(C(F)(F)F)c3)ccc2Cl)nn1 [Compound 17],133 to 134,18.3,
"Cc1cn(-c2cc(NC(=O)c3ccc(C)c(C#Cc4ccc(NC(C)C)nn4)c3)cc(C(F)(F)F)c2)cn1 [Compound 25, 3-(2-(6-(Isopropylamino)pyridazin-3-yl)ethynyl)-4-methyl-N-(3-(4-methyl-1H-imidazol-1-yl)-5-(trifluoromethyl)phenyl)benzamide]",192 to 194,,
"Cc1cn(-c2cc(NC(=O)c3ccc(Cl)c(C#Cc4cnc(NC5CC5)nc4)c3)cc(C(F)(F)F)c2)cn1 [Compound 33, 4-Chloro-3-(2-(2-(cyclopropylamino)pyrimidin-5-yl)ethynyl)-N-(3-(4-methyl-1H-imidazol-1-yl)-5-(trifluoromethyl)phenyl)benzamide]",163 to 165,7.97,
"CN1CCN(Cc2ccc(NC(=O)N3CCCC(C#Cc4cnc5cccnn45)C3)cc2C(F)(F)F)CC1 (centres unmarked) [Compound 34, 3-(2-(Imidazo[1,2-b]pyridazin-3-yl)ethynyl)piperidine-N-(4-((4-methylpiperazin-1-yl)methyl)-3-(trifluoromethyl)phenyl)-1-carboxamide]",65 to 70,12,

# More lines, main results first:
melting point [°C],Compound,viability at 0.1 µM (K562 cells) [%],other results
156 to 157,"CN1CCN(Cc2ccc3nc(-c4ccc(Cl)c(C#Cc5cnc6cccnn56)c4)[nH]c3c2)CC1 [Compound 6, 3-(2-(2-Chloro-5-(6-((4-methylpiperazin-1-yl)methyl)-1H-benzo[d]imidazol-2-yl)phenyl)ethynyl)imidazo[1,2-b]pyridazine]",10.1,
132 to 133,"CN1CCN(Cc2ccc(NC(=O)c3ccc(Cl)c(C#Cc4ccc(NC5CCC5)nn4)c3)cc2C(F)(F)F)CC1 [Compound 16, 4-Chloro-3-(2-(6-(cyclobutylamino)pyridazin-3-yl)ethynyl)-N-(4-((4-methylpiperazin-1-yl)methyl)-3-(trifluoromethyl)phenyl)benzamide]",8.46,
223 to 225,"Cc1cn(-c2cc(NC(=O)c3ccc(C)c(C#Cc4ccc(NC5CCC5)nn4)c3)cc(C(F)(F)F)c2)cn1 [Compound 24, 3-(2-(6-(Cyclobutylamino)pyridazin-3-yl)ethynyl)-4-methyl-N-(3-(4-methyl-1H-imidazol-1-yl)-5-(trifluoromethyl)phenyl)benzamide]",16.4,
213 to 215,"Cc1cn(-c2cc(NC(=O)c3ccc(Cl)c(C#Cc4ccc(NC5CC5)nn4)c3)cc(C(F)(F)F)c2)cn1 [Compound 26, 4-Chloro-3-(2-(6-(cyclopropylamino)pyridazin-3-yl)ethynyl)-N-(3-(4-methyl-1H-imidazol-1-yl)-5-(trifluoromethyl)phenyl)benzamide]",18.3,
225 to 227,"Cc1cn(-c2cc(NC(=O)c3ccc(Cl)c(C#Cc4ccc(NC5CCC5)nn4)c3)cc(C(F)(F)F)c2)cn1 [Compound 27, 4-Chloro-3-(2-(6-(cyclobutylamino)pyridazin-3-yl)ethynyl)-N-(3-(4-methyl-1H-imidazol-1-yl)-5-(trifluoromethyl)phenyl)benzamide]",,
131 to 133,"Cc1cn(-c2ccc(NC(=O)c3ccc(C)c(C#Cc4cnc(NC5CC5)nc4)c3)cc2C(F)(F)F)cn1 [Compound 28, 3-(2-(2-(Cyclopropylamino)pyrimidin-5-yl)ethynyl)-4-methyl-N-(4-(4-methyl-1H-imidazol-1-yl)-3-(trifluoromethyl)phenyl)benzamide]",12.7,
141 to 143,"Cc1cn(-c2ccc(NC(=O)c3ccc(Cl)c(C#Cc4cnc(NC5CC5)nc4)c3)cc2C(F)(F)F)cn1 [Compound 29, 4-Chloro-3-(2-(2-(cyclopropylamino)pyrimidin-5-yl)ethynyl)-N-(4-(4-methyl-1H-imidazol-1-yl)-3-(trifluoromethyl)phenyl)benzamide]",5.87,
153 to 155,"Cc1cn(-c2ccc(NC(=O)c3ccc(Cl)c(C#Cc4cnc5cccnn45)c3)cc2C(F)(F)F)cn1 [Compound 31, 4-Chloro-3-(2-(imidazo[1,2-b]pyridazin-3-yl)ethynyl)-N-(4-(4-methyl-1H-imidazol-1-yl)-3-(trifluoromethyl)phenyl)benzamide]",14.4,
153 to 154,"Cc1cn(-c2cc(NC(=O)c3ccc(Cl)c(C#Cc4cnc5cccnn45)c3)cc(C(F)(F)F)c2)cn1 [Compound 32, 4-Chloro-3-(2-(imidazo[1,2-b]pyridazin-3-yl)ethynyl)-N-(3-(4-methyl-1H-imidazol-1-yl)-5-(trifluoromethyl)phenyl)benzamide]",9.57,
83 to 85,"CN1CCN(Cc2ccc(NC(=O)N3CCC(C#Cc4cnc5cccnn45)C3)cc2C(F)(F)F)CC1 (centres unmarked) [Compound 35, 3-(2-(Imidazo[1,2-b]pyridazin-3-yl)ethynyl)pyrrolidine-N-(4-((4-methylpiperazin-1-yl)methyl)-3-(trifluoromethyl)phenyl)-1-carboxamide]",11.3,
